Assay results published in patent US7504508B2, “PGD2 receptor antagonists for the treatment of inflammatory diseases” (Millennium Pharmaceuticals, Inc., priority 2002, dated 2009).

Biological target: T1, cloned human CRTH2 receptor (Homo sapiens, UniProt Q9Y5Y4)
T1 construct: purchased Biosignal; host or cells: HEK-293 cells stably expressing human CRTH2 and G-alpha-16 (membranes)
T1 sequence (Q9Y5Y4 1-395): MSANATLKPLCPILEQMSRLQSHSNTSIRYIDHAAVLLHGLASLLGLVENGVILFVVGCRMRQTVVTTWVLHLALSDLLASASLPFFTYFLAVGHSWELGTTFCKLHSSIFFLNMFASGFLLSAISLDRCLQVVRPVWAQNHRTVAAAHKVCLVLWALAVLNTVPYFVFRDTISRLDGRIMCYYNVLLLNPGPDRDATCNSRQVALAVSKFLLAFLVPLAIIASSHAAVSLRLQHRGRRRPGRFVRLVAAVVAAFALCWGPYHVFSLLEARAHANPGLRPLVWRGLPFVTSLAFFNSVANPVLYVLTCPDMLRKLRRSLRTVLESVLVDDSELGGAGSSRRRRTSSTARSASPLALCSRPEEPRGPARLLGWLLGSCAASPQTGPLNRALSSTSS
Assay: Radioligand membrane binding assay: inhibition of [3H] PGD2 binding to CRTH2 (Scintillation Proximity Assay)
Details: inhibition of [3H] PGD2 binding to membranes of HEK-293 cells stably expressing human CRTH2; SPA; 10 point curve from 10 μM; room temperature, approximately 2 hours
Experimental: This radioligand membrane binding assay evaluates the ability of compounds to inhibit [^3H] Prostaglandin D2 (PGD2) binding to the cloned human CRTH2 receptor stably expressed in HEK-293 cells (expressing human CRTh2 receptor and α subunit or the heteronimeric G protein 16 were prepared by Biosignal Company) using Scintillation Proximity Assay.
A binding buffer containing 50 mM Tris-HCl (pH 7.5), 5 mM MgCl2 and 1 mM EDTA was prepared immediately prior to performing the assay. A bead/membrane solution at twice the final assay concentration comprising membranes (membranes bought from Biosignal) from the HEK-293 cells cloned to express CRTH2 receptor bound to and [3H] PGD2 at twotimes the final assay concentration were prepared and stored on ice before adding to wells. Cold PGD2 at twenty times the final assay concentration was prepared and stored on ice before adding to wells defining non-specific binding (NSB) corning plates #3653 were used for this assay.
10 mM stock concentrations of compounds in 100% DMSO were prepared and stored at room temperature. A 10 point concentration response curve was then constructed for each compound, starting at 10 μM (final assay concentration). The compounds were prepared at 40 times final assay concentrations with nine consequent-3-fold dilutions.
0.1 μl of each concentration of compound were added to the appropriate well of the 384 plate and 2 μl of cold PGD2 was added into the wells defining NSB. 20 μl of [^3H] PGD2 and then 20 μl of 2× of bead/membrane solution were then added to each well.
The plates were allowed to incubate at room temperature for approximately 2 hours and then counted on Packard Topcount using SPA tritium protocol for 1 minute/well.
The percent inhibition of PGD2 binding (PGD2 used at the KD value or lower) to the HEK-293 cell membranes was determined, the assay was always run as duplicate for n=1 for a total of n=2.

Row | Structure (SMILES) | Ki [µM]
1 | COc1cccc(C(=O)N2c3ccccc3[C@H](N(C(=O)c3ccc(Cl)cc3)c3ccccc3)C[C@@H]2C)c1 (racemic) [Compound A-3, (±)-Cis-4-chloro-N-[1-(3-methoxy-benzoyl)-2-methyl-1,2,3,4-tetrahydro-quinolin-4-yl]-N-phenyl-benzamide] | < 10
2 | CC(=O)N(c1ccccc1)[C@@H]1C[C@H](C)N(C(=O)c2sc(-c3ccccc3)nc2C)c2ccccc21 (racemic) [Compound A-16, (±)-Cis-N-[2-methyl-1-(4-methyl-2-phenyl-thiazole-5-carbonyl)-1,2,3,4-tetrahydro-quinolin-4-yl]-N-phenyl-acetamide] | < 10
3 | CC(=O)N(c1ccccc1)[C@@H]1C[C@H](C)N(C(=O)c2snnc2C)c2ccccc21 (racemic) [Compound A-17, (±)-Cis-N-[2-methyl-1-(4-methyl-[1,2,3]thiadiazole-5-carbonyl)-1,2,3,4-tetrahydro-quinolin-4-yl]-N-phenyl-acetamide] | < 10
4 | CC(=O)N(c1ccccc1)[C@@H]1C[C@H](C)N(C(=O)c2cc(F)c(F)c(F)c2)c2ccccc21 (racemic) [Compound A-20, (±)-Cis-N-[2-methyl-1-(3,4,5-trifluoro-benzoyl)-1,2,3,4-tetrahydro-quinolin-4-yl]-N-phenyl-acetamide] | < 10
5 | CC(=O)N(c1ccccc1)[C@@H]1C[C@H](C)N(C(=O)c2c(F)cc(F)cc2F)c2ccccc21 (racemic) [Compound A-24, (±)-Cis-N-[2-methyl-1-(2,4,6-trifluoro-benzoyl)-1,2,3,4-tetrahydro-quinolin-4-yl]-N-phenyl-acetamide] | < 10
6 | CCC(=O)N(c1ccccc1)[C@@H]1C[C@H](C)N(C(=O)c2cccc(Cl)c2)c2ccccc21 (racemic) [Compound A-35, (±)-Cis-N-[1-(3-chloro-benzoyl)-2-methyl-1,2,3,4-tetrahydro-quinolin-4-yl]-N-phenyl-propionamide] | < 10
7 | CC(=O)N(C)CC(=O)N(c1ccccc1)[C@@H]1C[C@H](C)N(C(=O)c2ccc(F)cc2)c2ccccc21 (racemic) [Compound A-49, (±)-Cis-2-(acetyl-methyl-amino)-N-[1-(4-fluoro-benzoyl)-2-methyl-1,2,3,4-tetrahydro-quinolin-4-yl]-N-phenyl-acetamide] | < 10
8 | COc1cccc(C(=O)N2c3ccccc3[C@H](N(C(=O)C3CCCCC3)c3ccccc3)C[C@@H]2C)c1 (racemic) [Compound A-54, (±)-Cis-cyclohexanecarboxylic acid [1-(3-methoxy-benzoyl)-2-methyl-1,2,3,4-tetrahydro-quinolin-4-yl]-phenylamide] | < 10
9 | COc1cccc(C(=O)N2c3ccccc3[C@H](N(C(=O)c3ccno3)c3ccccc3)C[C@@H]2C)c1 (racemic) [Compound A-55, (±)-Cis-isoxazole-5-carboxylic acid [1-(3-methoxy-benzoyl)-2-methyl-1,2,3,4-tetrahydro-quinolin-4-yl]-phenyl-amide] | < 10
10 | CC(=O)N(c1ccccc1)[C@@H]1C[C@H](C)N(C(=O)c2sc(C)nc2C)c2ccccc21 (racemic) [Compound A-67, (±)-Cis-N-[1-(2,4-dimethyl-thiazole-5-carbonyl)-2-methyl-1,2,3,4-tetrahydro-quinolin-4-yl]-N-phenyl-acetamide] | < 10
11 | C[C@H]1C[C@@H](N(C(=O)COc2ccccc2)c2ccccc2)c2ccccc2N1C(=O)c1ccc(F)cc1 (racemic) [Compound A-72, (±)-Cis-N-[1-(4-fluoro-benzoyl)-2-methyl-1,2,3,4-tetrahydro-quinolin-4-yl]-2-phenoxy-N-phenyl-acetamide] | < 10
12 | C[C@H]1C[C@@H](N(C(=O)CCc2ccccc2)c2ccccc2)c2ccccc2N1C(=O)c1ccc(F)cc1 (racemic) [Compound A-73, (±)-Cis-N-[1-(4-fluoro-benzoyl)-2-methyl-1,2,3,4-tetrahydro-quinolin-4-yl]-3,N-diphenyl-propionamide] | < 10
13 | CCC(=O)N(c1ccccc1)C1CC(C)N(C(=O)C2CN(Cc3ccccc3)CCO2)c2ccccc21 (racemic) [Compound A-81, (±)-Cis-N-[1-(4-benzyl-morpholine-2-carbonyl)-2-methyl-1,2,3,4-tetrahydro-quinolin-4-yl]-N-phenyl-propionamide] | < 10
14 | CCC(=O)N(c1ccccc1)C1CC(C)N(C(=O)C2CN(CC)CCO2)c2ccccc21 (racemic) [Compound A-82, (±)-Cis-N-[1-(4-Ethyl-morpholine-2-carbonyl)-2-methyl-1,2,3,4-tetrahydro-quinolin-4-yl]-N-phenyl-propionamide] | < 10
15 | COc1cccc(C(=O)N2c3ccccc3[C@@H](N(C(C)=O)c3ccccc3)C[C@@H]2C)c1 (racemic) [Compound A-124, (±)-Trans-N-[1-(3-methoxy-benzoyl)-2-methyl-1,2,3,4-tetrahydro-quinolin-4-yl]-N-phenyl-acetamide] | < 60
16 | CC(=O)N(c1ccccc1)[C@@H]1C[C@H](C)N(C(=O)c2cccn2C)c2ccccc21 (racemic) [Compound A-130, (±)-Cis-N-[2-methyl-1-(1-methyl-1H-pyrrole-2-carbonyl)-1,2,3,4-tetrahydro-quinolin-4-yl]-N-phenyl-acetamide] | < 10
17 | CCC(=O)N(c1ccccc1)[C@@H]1C[C@H](C)N(C(=O)c2ccnc(C)c2)c2ccccc21 (racemic) [Compound A-131, (±)-Cis-N-[2-methyl-1-(2-methyl-pyridine-4-carbonyl)-1,2,3,4-tetrahydro-quinolin-4-yl]-N-phenyl-propionamide] | < 10
18 | CC(C)CC(=O)N(c1ccccc1)[C@@H]1C[C@H](C)N(C(=O)c2ccc(F)cc2)c2ccccc21 (racemic) [Compound A-132, (±)-Cis-N-[1-(4-fluoro-benzoyl)-2-methyl-1,2,3,4-tetrahydro-quinolin-4-yl]-3-methyl-N-phenyl-butyramide] | < 10
19 | CCC(=O)N(c1ccccc1)[C@@H]1C[C@H](C)N(C(=O)c2ccc(-c3ccc(C(F)(F)F)cc3Cl)o2)c2ccccc21 (racemic) [Compound A-143, (±)-Cis-N-{1-[5-(2-chloro-4-trifluoromethyl-phenyl)-furan-2-carbonyl]-2-methyl-1,2,3,4-tetrahydro-quinolin-4-yl}-N-phenyl-propionamide] | < 10
20 | CCC(=O)N(c1ccccc1)[C@@H]1C[C@H](C)N(C(=O)c2ccc(-c3ccc([N+](=O)[O-])cc3)o2)c2ccccc21 (racemic) [Compound A-144, (±)-Cis-N-{2-methyl-1-[5-(4-nitro-phenyl)-furan-2-carbonyl]-1,2,3,4-tetrahydro-quinolin-4-yl}-N-phenyl-propionamide] | < 10
21 | C=CCC(=O)N(c1ccccc1)[C@@H]1C[C@H](C)N(C(=O)c2ccc(F)cc2)c2ccccc21 (racemic) [Compound A-147, (±)-Cis-but-3-enoic acid [1-(4-fluoro-benzoyl)-2-methyl-1,2,3,4-tetrahydro-quinolin-4-yl]-phenyl-amide] | < 10
22 | CC(=O)N(c1ccccc1)[C@@H]1C[C@H](C)N(C(=O)c2ccccc2C)c2ccccc21 (racemic) [Compound A-153, (±)-Cis-N-[2-methyl-1-(2-methyl-benzoyl)-1,2,3,4-tetrahydro-quinolin-4-yl]-N-phenyl-acetamide] | < 10
23 | CC(=O)N(c1ccccc1)[C@@H]1C[C@H](C)N(C(=O)c2c(C)noc2C)c2ccccc21 (racemic) [Compound A-154, (±)-Cis-N-[1-(3,5-dimethyl-isoxazole-4-carbonyl)-2-methyl-1,2,3,4-tetrahydro-quinolin-4-yl]-N-phenyl-acetamide] | < 60
24 | CC(=O)N(c1ccccc1)[C@@H]1C[C@H](C)N(C(=O)C2CCCCC2)c2ccccc21 (racemic) [Compound A-157, (±)-Cis-N-(1-cyclohexanecarbonyl-2-methyl-1,2,3,4-tetrahydro-quinolin-4-yl)-N-phenyl-acetamide] | < 10
25 | CC(=O)N(c1ccccc1)[C@@H]1C[C@H](C)N(C(=O)c2cc(C)nn2C)c2ccccc21 (racemic) [Compound A-159, (±)-Cis-N-[1-(2,5-dimethyl-2H-pyrazole-3-carbonyl)-2-methyl-1,2,3,4-tetrahydro-quinolin-4-yl]-N-phenyl-acetamide] | < 10
